How the values were obtained:
[1] = tested on: mouse CD8^+ T cells; assay: RNA-sequencing of CD8+ T cells with or without TVA (also siNTC / siCreb1); assay type: cell-based; settings: 20 μM TVA, 24 h
[2] = tested on: tumor-infiltrating CD8^+ T cells
Protocol: After incubation at 37° C. for 25 min on a shaking platform, the digested tumor tissues were transferred into a 70 μm mesh nylon strainer on a 50 mL conical tube, pushed through the strainer using the rubber end of a syringe plunger, and rinsed with the recommended medium. After centrifugation at 300×g for 10 min at room temperature with the brake on low, the resulting cell pellets were added 10 mL of ammonium chloride solution for incubation at room temperature for 5 minutes, followed by centrifugation at 300×g for 10 minutes at room temperature with the brake on low.
Freshly excised mouse tumor tissues were minced into small pieces (volume smaller than 1 mm^3) by scissors in PBS, digested by Collagenase IV (1 mg/mL) and DNase I (200 U/mL) at 37° C. for 20 minutes in PBS with gentle rocking. The digested tumor tissues were added 5 times volume 0.01M EDTA, filtered into new tube through 200 mesh screen (100 μm strainer), and then centrifuged at 300×g for 5 minutes at room temperature. The resulting cell pellets were re-suspended with 3 mL PBS, laid gently on 3 mL lymphocytes isolation liquid (pre-warmed to room temperature), and subjected to density gradient centrifugation (300×g, 30 minutes, room temperature, accelerate 6, decelerate 2). The middle layer of cells was moved carefully to a new tube, added PBS to 15 mL, and centrifuged (300×g, 10 minutes, room temperature). The cell pellets (lyse red cells if necessary) were designated tumor-infiltrating lymphocytes and used for following experiments.
Mouse spleens were disrupted with syringe plunger in 1 mL PBS in a 40 μm strainer filtered to a 15 mL tube, washed with PBS and centrifuged at 300×g for 5 minutes. The resulting cell pellets were re-suspended the with 2 mL red cell lysis buffer (Invitrogen), incubated at room temperature for 10 minutes, and centrifuged at 300×g for 5 minutes after adding 13 mL PBS. The resulting cell pellets was designated splenocytes and used for following experiments.
Draining lymph nodes were disrupted with syringe plunger in 1 mL PBS in a 40 μm strainer filtered to a 15 mL tube, washed with PBS, and centrifuged at 300×g for 5 minutes. The resulting cell pellets was designated LN Lymphocytes and used for following experiments.
Mouse primary cells isolated from tumor, spleen, draining lymph node were stained with fluorescent antibodies and analyzed by flow cytometry.
For experiments with live/dead criteria, cells were first stained with Fixable Viability Dyes (FVD) (Thermo Fisher Scientific) according to the manufacturer's instructions. Subsequent surface marker staining was performed in Flow Cytometry Staining Buffer (Thermo Fisher Scientific). Intracellular staining for flow panels containing nuclear proteins was performed using the eBioscience FoxP3/Transcription Factor Staining Buffer Set (Thermo Fisher Scientific) according to the manufacturer's instructions. For intracellular staining of cytoplasmic proteins, the Fixation/Permeabilization Solution Kit (BD Biosciences) was used according to the manufacturer's instructions.
For phospho antibody staining, cells were incubated with FVD (cell viability dye) for 15 minutes at room temperature in a tube, re-suspended with 200 μL pre-warmed 1×BD Phosflow Lyse/Fix buffer directly into the tube, and incubated at 37° C. for 10-15 minutes, followed by centrifugation at 300×g for 5 minutes. The resulting cell pellets were washed once with FACS buffer, permeabilized with 200 μL of BD Phosflow Perm Buffer III for 45 minutes on ice, and centrifuged at 300×g for 5 minutes.

[3] = tested on: primary CD4^+ T cells; assay: In vitro function of activated mouse primary CD4+ T cells; assay type: cell-based; settings: TVA treatment in vitro
[4] = tested on: mouse primary CD8^+ T cells; assay: cAMP level; assay type: cell-based; settings: 20 μM TVA; 0, 20 minutes, 40 minutes, 2 hours
[5] = tested on: human CD8^+ T cells; assay: KAS-seq, human CD8+ T cells; assay type: cell-based; settings: 20 μM TVA, 20 min-2 h
Protocol: (§2) 500 mM N3-kethoxal was then supplemented into the media followed by brief, vigorous shaking to fully homogenize the solution. The 6-well plates were then moved into the cell incubator (37° C., 5% CO2) for 10 minutes to promote labeling of genomic single-stranded DNA (ssDNA). Cell suspensions were then transferred to 15 mL conical tubes and centrifuged at 300×g for 5 minutes at 4° C. The supernatant media was discarded, and genomic DNA was then extracted. […] Dual index libraries were constructed for high throughput sequencing using an Accel-NGS Methyl-seq DNA library kit and then sequenced at the Genomics Facility (University of Chicago) via Illumina NovaSeq 6000 (SP flowcell, 100 bp cassette) in two separate runs. […] M. musculus and H. sapiens CD8^+ T cell KAS-seq data were assessed separately.

[6] = tested on: anti-human CD19-CD28z-GFP CAR T cells; assay: CAR-T cell expansion assay; assay type: cell-based; settings: 20 μM TVA
[7] = tested on: mouse CD8^+ T cells; assay: KAS-seq, mouse CD8+ T cells; assay type: cell-based; settings: 20 μM TVA, 20 min-2 h
Protocol: as §2

[8] = tested on: tumor infiltrating immune cells; assay: Tumor immune cell analysis (macrophages, CD8, Tregs, DCs); assay type: in vivo; settings: TVA treatment
[9] = tested on: Mouse T cell; assay: Second screen: IL-2 level of murine primary T cells; assay type: cell-based
Text: (§1) Two preliminary screens were designed and performed.

[10] = tested on: influenza virus; assay: Influenza virus challenge of mice; assay type: in vivo, mouse
Text: Control mice were born by mothers on normal diet, followed by normal milk feeding and normal diet since weaning.

[11] = tested on: B16F10 tumor; assay: Mouse tumor model, B16F10; assay type: in vivo; settings: B16F10 tumor-bearing C57BL/6 mice on enriched diet vs control diet
Protocol: For C57BL/6 mice and TCR-a KO mice tumor model, mice were anesthetized with isoflurane, shaved the injection site, and then injected subcutaneously in the abdominal flank with 1×10^5 B16F10, MC38, or LLC1 cells, or in the mammary gland with 2×10^5 E0771 cells. C57BL/6 nude mice were injected subcutaneously in the abdominal flank with 1×10^5B16F10 cells. […] Tumors were measured the tumors using a caliper every 2-3 days. Tumor volumes were calculated using the following formula: length×width×[(length×width)^0.5]×π/6. Mice were euthanized at humane endpoints or day 11-15 for tissue collection.
The mice were treated once a day for 5 consecutive days per week for 2 weeks. Tumors were measured the tumors using a caliper every 2-3 days. Tumor volumes were calculated using the following formula: length×width×[(length×width)^0.5]×π/6. Mice were euthanized at humane endpoints.
For anti-PD-1 treatment mouse model, 6-8 weeks old C57BL/6 mice were anesthetized with isoflurane, shaved the injection site, and then injected subcutaneously in the abdominal flank with 1×10^5 B16F10 for tumor development. […] In day 3, 6, 9, 12, and 15, 250 μg anti-PD-1 (BioXCell) or IgG control (BioXCell) was injected intraperitoneally per mouse. Tumors were measured the tumors using a caliper every 2-3 days. Tumor volumes were calculated using the following formula: length×width×[(length×width)^0.5]×π/6. […]

[12] = Extraction and quantification of TVA levels by NMR (mouse serum and TIF); assay type: in vivo; settings: B16F10 tumor bearing mice, TVA-enriched diet; 1H NMR
[13] = tested on: mouse primary CD8^+ T cells; assay: Phospho antibody array; assay type: cell-based
Protocol: The quantification for pixel density in each spot of the array was carried out by subtracting background signals from the spot intensity using software ImageJ (ImageJ, RRID: SCR_003070). Please also refer to Resources Table and Table 6 for more details.

[14] = tested on: human T cell and CD8^+ T cell treated with rhPD-L1; assay: rhPD-L1 exhaustion assay of human T cells and CD8+ T cells; assay type: cell-based; settings: 20 μM TVA; 0.5 μg/mL rhPD-L1, 72 hours; IL-2, TNF-α
[15] = tested on: human primary T cell; assay: IL-2 production of human primary T cells; assay type: cell-based; settings: 20 μM TVA (FIG. 17B)
Text: as §1

[16] = tested on: Mouse CD4^+ T cell; assay: Second screen: IL-2 level of mouse CD4+ T cells
[17] = tested on: colon tumors; assay: Colon tumorigenesis in Apc+/fl; Cdx-2P-Cre-NLS mice; assay type: in vivo, mouse; settings: gavage TVA 35 mg/kg bw daily×5 days for 4 wks; lipid rich diet

Which “gene expression (RNA-seq, GSEA)” value [1] does the source give for `CCCCCC/C=C/CCCCCCCCCC(=O)O` [TVA, trans-vaccenic acid] here?
The value was “enhances expression of the genes enriched in effector CD8^+ T cell function, E2F and MYC pathways”.

What about the “p-CREB and p-STAT1 levels in tumor-infiltrating CD8+ T cells” value ([2]; B16F10 tumors from syngeneic mice fed on TVA) of the same molecule?
Its value is “Increased p-CREB and p-STAT1 levels”.

And the “CD4+ T cell population in TILs” value ([2]; TVA diet, B16F10 tumors)?
The value was “not altered”.

And the “tumor-infiltrating populations of neutrophils and monocytes” value ([2]; TVA diet, B16F10 tumors)?
Its value is “markedly increases tumor-infiltrating populations of neutrophils and monocytes”.

What about the “conventional CD4+ T cell or CD4+Foxp3+ Treg cell populations” value ([2]; TVA diet, spleens, dLNs and tumors of B16F10 tumor-bearing mice) of the same molecule?
Its value is “has no effects on conventional CD4^+ T cell”.

And the “cytokine expression in tumor-infiltrating CD8+ T cells” value ([2]; dietary TVA, B16F10 tumors)?
The value was “increased expression levels of cytokines including IL-2, TNF-α, and IFN-γ”.

What about the “exhaustion of CD8+ T cells (PD-1 and LAG-3 expression)” value ([2]; dietary TVA, tumors and spleens, not dLNs) of the same molecule?
The value was “reduces exhaustion of CD8^+ T cells in tumors and spleens”.

What about the “CD8+ T cell population in tumor-infiltrating lymphocytes (TILs)” value ([2]; enriched diet, B16F10 tumors) of the same molecule?
Its value is “increased CD8^+ T cell population”.

And the “IL-2 production of primary CD4+ T cells” value [3]?
The value was “increased IL-2 production”.

What about the “TNF-α, IFN-γ and apoptosis of primary CD4+ T cells” value [3] of the same molecule?
The value was “non-altered expression of TNF-α and IFN-γ or apoptosis”.

And the “cAMP levels in CD8+ T cells” value [4]?
Its value is “elevates cAMP levels”.

What about the “GO enrichment of altered gene bodies (KAS-seq)” value [5] of the same molecule?
Its value is “G-protein coupled receptor (GPCR) activities among the top-enriched ontologies”.

And the “in vitro expansion of CAR T cells” value ([6]; 3 lymphoma patients with age between 42 and 47)?
Its value is “improves in vitro expansion”.

And the “in vitro expansion of CAR T cells” value ([6]; elder patient)?
The value was “do not respond to TVA treatment”.

What about the “GO enrichment of altered gene bodies (KAS-seq)” value [7] of the same molecule?
The value was “G-protein coupled receptor (GPCR) activities among the top-enriched ontologies”.

And the “anti-tumor immunity (CD8+ T cells, dendritic cells, Treg, TAMs)” value [8]?
The value was “enhances anti-tumor immunity”.

And the “Mouse T cell IL-2 level changes after treatment” value [9]?
The value was 183.5%.

And the “IL-2 production from mouse primary T cells” value ([9]; 20 μM TVA (FIG. 17A))?
The value was “enhances IL-2 production”.

What about the “survival after influenza virus challenge” value ([10]; TVA exposure during fetal and infant stages, TVA diet since weaning) of the same molecule?
Its value is “significantly increased survival”.

And the “immune responses to viral exposure, male vs female” value ([10]; TVA mice)?
Its value is “better immune responses to viral exposure compared to female TVA mice”.

What about the “body weights of mice” value [11] of the same molecule?
The value was “did not alter body weights”.

What about the “average TVA level in tumor interstitial fluid (TIF)” value [12] of the same molecule?
The value was roughly 48 µM.

And the “average serum TVA level” value [12]?
Its value is roughly 386 µM.

And the “p-CREB level (phospho-antibody array)” value ([13]; 40 min, 2 h and 6 h post-TVA treatment, reduces at 24 h)?
The value was “Increased p-CREB level”.

What about the “p-STAT1 level (phospho-antibody array)” value ([13]; 2 h and 24 h TVA treatment) of the same molecule?
The value was “elevated”.

And the “phosphorylation level of AKT (p-AKT)” value ([13]; 2 h post-TVA treatment)?
Its value is “reduced phosphorylation level of AKT (p-AKT)”.

And the “phosphorylation level of STAT3 (p-STAT3)” value ([13]; 2 h post-TVA treatment)?
The value was “increased phosphorylation level of STAT3 (p-STAT3)”.

What about the p-AKT level ([13]; 24 h post-TVA treatment) of the same molecule?
Its p-AKT level is “increased p-AKT level at 24 h”.

And the “exhaustion of primary human bulk T cells and CD8+ T cells treated with recombinant PD-L1” value [14]?
Its value is “significantly reverses exhaustion”.

And the “IL-2 production from human primary T cells” value [15]?
The value was “enhances IL-2 production”.

And the “Mouse CD4^+ T cell IL-2 level changes after treatment” value [16]?
Its value is 155.6%.

And the “tumorigenesis and tumor progression (tumor multiplicity, pathology)” value [17]?
Its value is “Suppresses Tumorigenesis and Tumor Progression”.
